The text below walks through data of paper PMC2992954 (Molecular bioSystems, 2009).

The target in the experiment is Sfp-PPTase (Bacillus subtilis, UniProt P39135). In words: Rhodamine/BHQ-2 dark quench assay. Type of experiment: biochemical.

Molecules are shown by their SMILES. Where a name gives a salt, the structure may show the parent alone.

Chain of Sfp-PPTase (P39135 whole entry): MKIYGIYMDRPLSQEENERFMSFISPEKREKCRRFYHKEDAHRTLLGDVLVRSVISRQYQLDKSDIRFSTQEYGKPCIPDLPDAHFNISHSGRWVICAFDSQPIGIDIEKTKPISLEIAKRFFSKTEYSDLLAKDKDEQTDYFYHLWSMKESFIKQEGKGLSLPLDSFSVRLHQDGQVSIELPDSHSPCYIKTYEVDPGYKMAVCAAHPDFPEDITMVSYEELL

Broadly, the IC50 is the concentration that gives 50% inhibition. Take `Nc1ncnc2c1ncn2[C@@H]1O[C@H](COP(=O)(O)O)[C@@H](OP(=O)(O)O)[C@H]1O` [PAP 3, adenosine 3′, 5′-diphosphate sodium salt]: the IC50 worked out at 14.6 µM.
